The values that follow come from patent US10821115B2, “Compounds that inhibit Mcl-1 protein” (priority 2017, dated 2020).

As a reminder, the IC50 is the midpoint of a concentration-inhibition curve.

For assay [1], the system named is human multiple myeloma cell line, OPM-2. The assay can be described thus: Cell viability assay (OPM-2 10 FBS), CellTiter-Glo. Format: cell-based. The gist of the method: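 Cells were seeded at 3000 cells/well in RPMI 1640 with 10% FBS and exposed to serially diluted compounds for 16 h at 37 °C, 5% CO2.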
A general note: ATP-based viability assays read luminescence as a measure of living cells.

Assay [2] concerns the target recombinant human Mcl-1 (residues 171-327) / Bim interaction (Homo sapiens (Human), UniProt Q07820). Briefly: biochemical. The note with it: read-out: Mcl-1 HTRF IC50. Format: binding. In general terms: In TR-FRET formats the signal depends on donor and acceptor labels being close together.
Setting [3] is: Homo sapiens, OPM-2, 16 h, read-out: OPM-2 10% FBS IC50 IP, OPM-2 cells, 10% FBS, 16 h, CellTiter-Glo.
[4] abbreviates: TR-FRET, Mcl-1(171-327) / biotin-Bim (51-76).
Where [5] appears, read: Homo sapiens, OPM-2, 16 h, read-out: OPM-2 10% FBS IC50 IP, OPM-2 cells, 10% FBS, 16 h incubation.
Where [6] appears, read: 0.1 nM Mcl-1(171-327), 0.05 nM biotin-Bim (51-76).
Where [7] appears, read: read-out: OPM-2 10% FBS IC50 IP, OPM-2 cells, 10% FBS, 16 h incubation.

Read-outs that look alike come from different tables or passages of the source.

Chain of recombinant human Mcl-1 (residues 171-327) / Bim interaction (Q07820 171-327): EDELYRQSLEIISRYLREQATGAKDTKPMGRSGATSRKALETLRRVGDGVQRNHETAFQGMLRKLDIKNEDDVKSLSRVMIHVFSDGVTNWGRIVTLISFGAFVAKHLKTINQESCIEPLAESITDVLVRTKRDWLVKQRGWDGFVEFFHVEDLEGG

For `CO[C@@]1(CCCO)/C=C/C[C@H](C)[C@@H](C)S(=O)(=O)NC(=O)c2ccc3c(c2)N(C[C@@H]2CC[C@H]21)C[C@@]1(CCCc2cc(Cl)ccc21)CO3` [Example 100177, (1S,3′R,6′R,7′S,8′E,11′S,12′R)-6-chloro-7′-(3-hydroxypropyl)-7′-methoxy-11′,12′-dimethyl-3,4-dihydro-2H,15′H-spiro[naphthalene-1,22′-[20]oxa[13]thia[1,14]diazatetracyclo [14.7.2.0~3,6~.0~19,24~]pentacosa[8,16,18,24]tetraen]-15′-one 13′,13′-dioxide], the half-maximal inhibitory concentration (IC50) in assay [1] (setting [3]) stood at 259 nM; in assay [2] (setting [4]) it was 0.258 nM.
Consider `C[C@@H]1[C@@H](C)C/C=C/[C@](O)(Cc2ccnc(C#N)c2)[C@@H]2CC[C@H]2CN2C[C@@]3(CCCc4cc(Cl)ccc43)COc3ccc(cc32)C(=O)NS1(=O)=O` [Example 100188, 4-(((1S,3′R,6′R,7′R,8′E,11′S,12′R)-6-chloro-7′-hydroxy-11′,12′-dimethyl-13′,13′-dioxido-15′-oxo-3,4-dihydro-2H-spiro[naphthalene-1,22′-[20]oxa[13]thia[1,14]diazatetracyclo [14.7.2.0~3,6~.0~19,24~]pentacosa[8,16,18,24]tetraen]-7′-yl)methyl)-2-pyridinecarbonitrile], for which the concentration for half-maximal inhibition (IC50) stood at 735 nM in assay [1] (read-out: OPM-2 10% FBS IC50 IP, OPM-2 cells, 10% FBS, 16 h, CellTiter-Glo) and 0.877 nM in assay [2] (setting [4]).
Regarding `CO[C@@]1(CN2CCC23COC3)/C=C/C[C@H](C)[C@@H](C)S(=O)(=O)NC(=O)c2ccc3c(c2)N(C[C@@H]2CC[C@H]21)C[C@@]1(CCCc2cc(Cl)ccc21)CO3` [Example 208, (1S,3′R,6′R,7′S,8′E,11′S,12′R)-6-chloro-7′-methoxy-11′,12′-dimethyl-7′-(6-oxa-1-azaspiro[3.3]hept-1-ylmethyl)-3,4-dihydro-2H,15′H-spiro[naphthalene-1,22′-[20]oxa[13]thia[1,14]diazatetracyclo [14.7.2.0~3,6~.0~19,24~]pentacosa[8,16,18,24]tetraen]-15′-one 13′,13′-dioxide], the IC50 worked out at 368 nM in assay [1] (setting [5]) and 0.099 nM in assay [2] (setting [6]).
As for `CO[C@]1(CC(=O)O)/C=C/C[C@H](C)[C@@H](C)S(=O)(=O)NC(=O)c2ccc3c(c2)N(C[C@@H]2CC[C@H]21)C[C@@]1(CCCc2cc(Cl)ccc21)CO3` [Example 100306, ((1S,3′R,6′R,7′R,8′E,11′S,12′R)-6-chloro-7′-methoxy-11′,12′-dimethyl-13′,13′-dioxido-15′-oxo-3,4-dihydro-2H-spiro[naphthalene-1,22′-[20]oxa[13]thia[1,14]diazatetracyclo [14.7.2.0~3,6~.0~19,24~]pentacosa[8,16,18,24]tetraen]-7′-yl)acetic acid], the IC50 in assay [1] (setting [3]) is 278 nM; in assay [2] (setting [4]), 0.124 nM.
For `C[C@@H]1[C@@H](C)CCC[C@](O)(Cc2ccccc2)[C@@H]2CC[C@H]2CN2C[C@@]3(CCCc4cc(Cl)ccc43)COc3ccc(cc32)C(=O)NS1(=O)=O` (single isomer, unassigned) [Example 100319] the same measures were 506 nM and 0.126 nM.
With `CO[C@]1(CN2CCN(CCS(C)(=O)=O)CC2)/C=C/C[C@H](C)[C@@H](C)S(=O)(=O)NC(=O)c2ccc3c(c2)N(C[C@@H]2CC[C@H]21)C[C@@]1(CCCc2cc(Cl)ccc21)CO3` [Example 73, (1S,3′R,6′R,7′R,8′E,11′S,12′R)-6-chloro-7′-methoxy-11′,12′-dimethyl-7′-((4-(2-(methylsulfonyl)ethyl)-1-piperazinyl)methyl)-3,4-dihydro-2H,15′H-spiro[naphthalene-1,22′-[20]oxa[13]thia[1,14]diazatetracyclo [14.7.2.0~3,6~.0~19,24~]pentacosa[8,16,18,24]tetraen]-15′-one 13′,13′-dioxide], the half-maximal inhibitory concentration (IC50) in assay [1] (setting [5]) was found to be 129 nM; in assay [2] (setting [6]), 0.609 nM.
`COCCN(C)C1CN(C[C@@]2(OC)/C=C/C[C@H](C)[C@@H](C)S(=O)(=O)NC(=O)c3ccc4c(c3)N(C[C@@H]3CC[C@H]32)C[C@@]2(CCCc3cc(Cl)ccc32)CO4)C1` [Example 94, (1S,3′R,6′R,7′R,8′E,11′S,12′R)-6-chloro-7′-methoxy-7′-((3-((2-methoxyethyl)(methyl)amino)-1-azetidinyl)methyl)-11′,12′-dimethyl-3,4-dihydro-2H,15′H-spiro[naphthalene-1,22′-[20]oxa[13]thia[1,14]diazatetracyclo [14.7.2.0~3,6~.0~19,24~]pentacosa[8,16,18,24]tetraen]-15′-one 13′,13′-dioxide]: the figures for the IC50 in assay [1] (setting [5]) and in assay [2] (setting [6]) were 140 nM and 0.191 nM, respectively.
For `C[C@@H]1[C@@H](C)CCC[C@]2(CC(N3CCN(C)CC3)=NO2)[C@@H]2CC[C@H]2CN2C[C@@]3(CCCc4cc(Cl)ccc43)COc3ccc(cc32)C(=O)NS1(=O)=O` [Example 100216, (1S,3′R,6′R,7′S,11′S,12′R)-6-chloro-11′,12′-dimethyl-3″-(4-methyl-1-piperazinyl)-3,4-dihydro-2H,4″H,15′H-dispiro[naphthalene-1,22′-[20]oxa[13]thia[1,14]diazatetracyclo [14.7.2.0~3,6~.0~19,24~]pentacosa[16,18,24]triene-7′,5″-[1,2]oxazol]-15′-one 13′,13′-dioxide], the figures for the IC50 in assay [1] (setting [3]) and in assay [2] (setting [4]) were 374 nM and 0.311 nM, respectively.
`COC(=O)N1CCN(C[C@]2(OC)/C=C/C[C@H](C)[C@@H](C)S(=O)(=O)NC(=O)c3ccc4c(c3)N(C[C@@H]3CC[C@H]32)C[C@@]2(CCCc3cc(Cl)ccc32)CO4)CC1` [Example 266, methyl 4-(((1S,3′R,6′R,7′S,8′E,11′S, 12′R)-6-chloro-7′-methoxy-11′,12′-dimethyl-13′,13′-dioxido-15′-oxo-3,4-dihydro-2H-spiro[naphthalene-1,22′-[20]oxa[13]thia[1,14]diazatetracyclo [14.7.2.0~3,6~.0~19,24~]pentacosa[8,16,18,24]tetraen]-7′-yl)methyl)-1-piperazinecarboxylate]: the IC50 in assay [1] (setting [5]) worked out at 723 nM; in assay [2] (setting [6]), 0.282 nM.
For `C[C@@H]1[C@@H](C)CCC[C@](CO)(NC(=O)c2ccccc2)[C@@H]2CC[C@H]2CN2C[C@@]3(CCCc4cc(Cl)ccc43)COc3ccc(cc32)C(=O)NS1(=O)=O` [Example 100256, N-((1S,3′R,6′R,7′S,11′S,12′R)-6-chloro-7′-(hydroxymethyl)-11′,12′-dimethyl-13′,13′-dioxido-15′-oxo-3,4-dihydro-2H-spiro[naphthalene-1,22′-[20]oxa[13]thia[1,14]diazatetracyclo [14.7.2.0~3,6~.0~19,24~]pentacosa[16,18,24]trien]-7′-yl)benzamide], the IC50 is 1200 nM in assay [1] (setting [3]) and 5.04 nM in assay [2] (setting [4]).
With `CO[C@]1(CN2CC[C@H]3CCCC[C@@H]3C2)/C=C/C[C@H](C)[C@@H](C)S(=O)(=O)NC(=O)c2ccc3c(c2)N(C[C@@H]2CC[C@H]21)C[C@@]1(CCCc2cc(Cl)ccc21)CO3` [Example 86], the half-maximal inhibitory concentration (IC50) in assay [1] (setting [7]) came to 7950 nM; in assay [2] (setting [6]), 3.9 nM.
As for `CO[C@@]1(CC(C)=O)/C=C/C[C@H](C)[C@@H](C)S(=O)(=O)NC(=O)c2ccc3c(c2)N(C[C@@H]2CC[C@H]21)C[C@@]1(CCCc2cc(Cl)ccc21)CO3` [Example 100446, (1S,3′R,6′R,7′S,8′E,11′S,12′R)-6-chloro-7′-methoxy-11′,12′-dimethyl-7′-(2-oxopropyl)-3,4-dihydro-2H,15′H-spiro[naphthalene-1,22′-[20]oxa[13]thia[1,14]diazatetracyclo [14.7.2.0~3,6~.0~19,24~]pentacosa[8,16,18,24]tetraen]-15′-one 13′,13′-dioxide], the IC50 in assay [1] (setting [3]) stood at 345 nM; in assay [2] (setting [4]) it was 0.126 nM.
With `CO[C@]1(CN2CCN3CCCC[C@@H]3C2)/C=C/C[C@H](C)[C@@H](C[C@H](C)O)S(=O)(=O)NC(=O)c2ccc3c(c2)N(C[C@@H]2CC[C@H]21)C[C@@]1(CCCc2cc(Cl)ccc21)CO3` (single isomer, unassigned) [Example 363], the half-inhibitory concentration (IC50) in assay [1] (setting [7]) amounted to 101 nM; in assay [2] (setting [6]), 0.08 nM.
Consider `CCCO[C@]1(C=O)/C=C/C[C@H](C)[C@@H](C)S(=O)(=O)NC(=O)c2ccc3c(c2)N(C[C@@H]2CC[C@H]21)C[C@@]1(CCCc2cc(Cl)ccc21)CO3` [Example 100602, (1S,3′R,6′R,7′R,8′E,11′S,12′R)-6-chloro-11′,12′-dimethyl-15′-oxo-7′-propoxy-3,4-dihydro-2H-spiro[naphthalene-1,22′-[20]oxa[13]thia[1,14]diazatetracyclo [14.7.2.0~3,6~.0~19,24~]pentacosa[8,16,18,24]tetraene]-7′-carbaldehyde 13′,13′-dioxide], for which the 50% inhibitory concentration (IC50) in assay [1] (setting [3]) worked out at 2330 nM; in assay [2] (setting [4]), 0.8 nM.
Take `CO[C@]1(CN(C)CCN2CCOCC2)/C=C/C[C@H](C)[C@@H](C)S(=O)(=O)NC(=O)c2ccc3c(c2)N(C[C@@H]2CC[C@H]21)C[C@@]1(CCCc2cc(Cl)ccc21)CO3` [Example 37, (1S,3′R,6′R,7′R,8′E,11′S,12′R)-6-chloro-7′-methoxy-11′,12′-dimethyl-7′-((methyl(2-(4-morpholinyl)ethyl)amino)methyl)-3,4-dihydro-2H,15′H-spiro[naphthalene-1,22′-[20]oxa[13]thia[1,14]diazatetracyclo [14.7.2.0~3,6~.0~19,24~]pentacosa[8,16,18,24]tetraen]-15′-one 13′,13′-dioxide]: the IC50 in assay [1] (setting [5]) came out at 643 nM; in assay [2] (setting [6]), 0.615 nM.
